# Assay results published in the supplement of paper PMC10307832.
# Legend:
# Assay in all cases: relative viability (nuclei count vs DMSO), 5 days (fraction); higher = more cells survive
# NCI-H838 = test system: NCI-H838
# How it was run: (§1)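 Relative viability divides the nuclei count in treated wells by that in vehicle wells. Lung cancer cell lines were seeded in 1536-well plates, dosed by pin tool the next day, and fixed and stained after 5 days in one step with final 0.05% Triton X-100, 1% formaldehyde and 1 ug/ml Hoechst. Dosing was a single drug or a fixed anchor-drug dose plus five library-drug doses (not always all listed) in √10 steps, and values are medians of duplicate plates imaged at 4×.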
# PC-14 = test system: PC-14
# How it was run: as §1
# HCC-15 = test system: HCC-15
# How it was run: as §1
# NCI-H650 = test system: NCI-H650
# How it was run: as §1
# NCI-H2126 = test system: NCI-H2126
# How it was run: as §1
# NCI-H1993 = test system: NCI-H1993
# How it was run: as §1
# NCI-H358 = test system: NCI-H358
# How it was run: as §1
# NCI-H1915 = test system: NCI-H1915
# How it was run: as §1
# LU99A = test system: LU99A
# How it was run: as §1
# HARA = test system: HARA
# How it was run: as §1
# NCI-H2347 = test system: NCI-H2347
# How it was run: as §1
# COR-L23 = test system: COR-L23
# How it was run: as §1
# NCI-H1355 = test system: NCI-H1355
# How it was run: as §1
# LC-2-ad = test system: LC-2-ad
# How it was run: as §1
# HOP-62 = test system: HOP-62
# How it was run: as §1
# NCI-H2085 = test system: NCI-H2085
# How it was run: as §1
# UMC-11 = test system: UMC-11
# How it was run: as §1
# SW 1573 = test system: SW 1573
# How it was run: as §1
# HCC-44 = test system: HCC-44
# How it was run: as §1
# NCI-H2023 = test system: NCI-H2023
# How it was run: as §1
# NCI-H1651 = test system: NCI-H1651
# How it was run: as §1
# ABC-1 = test system: ABC-1
# How it was run: as §1
# EPLC-272H = test system: EPLC-272H
# How it was run: as §1
compound,measurement,setting,value
O=c1cc(-c2cccc3c2Sc2ccccc2S3)oc(N2CCOCC2)c1 + Nc1ncn([C@H]2C[C@H](O)[C@@H](CO)O2)c(=O)n1 [Decitabine] (partner 2 µM),relative viability,NCI-H838; first compound 0.08 µM,0.471
same,relative viability,NCI-H838; first compound 0.253 µM,0.519
same,relative viability,NCI-H838; first compound 0.8 µM,0.457
same,relative viability,NCI-H838; first compound 2.53 µM,0.452
same,relative viability,NCI-H838; first compound 8 µM,0.497
same,relative viability,PC-14; first compound 0.08 µM,0.213
same,relative viability,PC-14; first compound 0.253 µM,0.19
same,relative viability,PC-14; first compound 0.8 µM,0.185
same,relative viability,PC-14; first compound 2.53 µM,0.165
same,relative viability,PC-14; first compound 8 µM,0.217
same,relative viability,HCC-15; first compound 0.08 µM,0.677
same,relative viability,HCC-15; first compound 0.253 µM,0.807
same,relative viability,HCC-15; first compound 0.8 µM,0.64
same,relative viability,HCC-15; first compound 2.53 µM,0.589
same,relative viability,HCC-15; first compound 8 µM,0.579
same,relative viability,NCI-H650; first compound 0.08 µM,0.317
same,relative viability,NCI-H650; first compound 0.253 µM,0.352
same,relative viability,NCI-H650; first compound 0.8 µM,0.513
same,relative viability,NCI-H650; first compound 2.53 µM,0.322
same,relative viability,NCI-H650; first compound 8 µM,0.29
same,relative viability,NCI-H2126; first compound 0.08 µM,0.583
same,relative viability,NCI-H2126; first compound 0.253 µM,0.581
same,relative viability,NCI-H2126; first compound 0.8 µM,0.612
same,relative viability,NCI-H2126; first compound 2.53 µM,0.534
same,relative viability,NCI-H2126; first compound 8 µM,0.54
same,relative viability,NCI-H1993; first compound 0.08 µM,0.593
same,relative viability,NCI-H1993; first compound 0.253 µM,0.61
same,relative viability,NCI-H1993; first compound 0.8 µM,0.467
same,relative viability,NCI-H1993; first compound 2.53 µM,0.586
same,relative viability,NCI-H1993; first compound 8 µM,0.577
same,relative viability,NCI-H358; first compound 0.08 µM,0.199
same,relative viability,NCI-H358; first compound 0.253 µM,0.205
same,relative viability,NCI-H358; first compound 0.8 µM,0.2
same,relative viability,NCI-H358; first compound 2.53 µM,0.25
same,relative viability,NCI-H358; first compound 8 µM,0.214
same,relative viability,NCI-H1915; first compound 0.08 µM,0.259
same,relative viability,NCI-H1915; first compound 0.253 µM,0.277
same,relative viability,NCI-H1915; first compound 0.8 µM,0.271
same,relative viability,NCI-H1915; first compound 2.53 µM,0.259
same,relative viability,NCI-H1915; first compound 8 µM,0.289
same,relative viability,LU99A; first compound 0.08 µM,0.897
same,relative viability,LU99A; first compound 0.253 µM,0.996
same,relative viability,LU99A; first compound 0.8 µM,1.04
same,relative viability,LU99A; first compound 2.53 µM,0.866
same,relative viability,LU99A; first compound 8 µM,1.18
same,relative viability,HARA; first compound 0.08 µM,0.634
same,relative viability,HARA; first compound 0.253 µM,0.52
same,relative viability,HARA; first compound 0.8 µM,0.483
same,relative viability,HARA; first compound 2.53 µM,0.555
same,relative viability,HARA; first compound 8 µM,0.49
same,relative viability,NCI-H2347; first compound 0.08 µM,0.606
same,relative viability,NCI-H2347; first compound 0.253 µM,0.663
same,relative viability,NCI-H2347; first compound 0.8 µM,0.627
same,relative viability,NCI-H2347; first compound 2.53 µM,0.616
same,relative viability,NCI-H2347; first compound 8 µM,0.629
same,relative viability,COR-L23; first compound 0.08 µM,0.429
same,relative viability,COR-L23; first compound 0.253 µM,0.513
same,relative viability,COR-L23; first compound 0.8 µM,0.386
same,relative viability,COR-L23; first compound 2.53 µM,0.508
same,relative viability,COR-L23; first compound 8 µM,0.588
same,relative viability,NCI-H1355; first compound 0.08 µM,0.374
same,relative viability,NCI-H1355; first compound 0.253 µM,0.382
same,relative viability,NCI-H1355; first compound 0.8 µM,0.342
same,relative viability,NCI-H1355; first compound 2.53 µM,0.373
same,relative viability,NCI-H1355; first compound 8 µM,0.331
same,relative viability,LC-2-ad; first compound 0.08 µM,0.786
same,relative viability,LC-2-ad; first compound 0.253 µM,0.928
same,relative viability,LC-2-ad; first compound 0.8 µM,0.905
same,relative viability,LC-2-ad; first compound 2.53 µM,0.761
same,relative viability,LC-2-ad; first compound 8 µM,0.793
same,relative viability,HOP-62; first compound 0.08 µM,0.206
same,relative viability,HOP-62; first compound 0.253 µM,0.221
same,relative viability,HOP-62; first compound 0.8 µM,0.187
same,relative viability,HOP-62; first compound 2.53 µM,0.228
same,relative viability,HOP-62; first compound 8 µM,0.234
same,relative viability,NCI-H2085; first compound 0.08 µM,0.532
same,relative viability,NCI-H2085; first compound 0.253 µM,0.578
same,relative viability,NCI-H2085; first compound 0.8 µM,0.52
same,relative viability,NCI-H2085; first compound 2.53 µM,0.519
same,relative viability,NCI-H2085; first compound 8 µM,0.537
same,relative viability,UMC-11; first compound 0.08 µM,0.599
same,relative viability,UMC-11; first compound 0.253 µM,0.567
same,relative viability,UMC-11; first compound 0.8 µM,0.585
same,relative viability,UMC-11; first compound 2.53 µM,0.613
same,relative viability,UMC-11; first compound 8 µM,0.712
same,relative viability,SW 1573; first compound 0.08 µM,0.561
same,relative viability,SW 1573; first compound 0.253 µM,0.575
same,relative viability,SW 1573; first compound 0.8 µM,0.598
same,relative viability,SW 1573; first compound 2.53 µM,0.448
same,relative viability,SW 1573; first compound 8 µM,0.596
same,relative viability,HCC-44; first compound 0.08 µM,0.93
same,relative viability,HCC-44; first compound 0.253 µM,1.02
same,relative viability,HCC-44; first compound 0.8 µM,0.968
same,relative viability,HCC-44; first compound 2.53 µM,0.88
same,relative viability,HCC-44; first compound 8 µM,0.965
same,relative viability,NCI-H2023; first compound 0.08 µM,0.214
same,relative viability,NCI-H2023; first compound 0.253 µM,0.276
same,relative viability,NCI-H2023; first compound 0.8 µM,0.25
same,relative viability,NCI-H2023; first compound 2.53 µM,0.245
same,relative viability,NCI-H2023; first compound 8 µM,0.229
same,relative viability,NCI-H1651; first compound 0.08 µM,0.575
same,relative viability,NCI-H1651; first compound 0.253 µM,0.766
same,relative viability,NCI-H1651; first compound 0.8 µM,0.617
same,relative viability,NCI-H1651; first compound 2.53 µM,0.555
same,relative viability,NCI-H1651; first compound 8 µM,0.628
same,relative viability,ABC-1; first compound 0.08 µM,0.993
same,relative viability,ABC-1; first compound 0.253 µM,1.16
same,relative viability,ABC-1; first compound 0.8 µM,1.33
same,relative viability,ABC-1; first compound 2.53 µM,1.17
same,relative viability,ABC-1; first compound 8 µM,1.19
same,relative viability,EPLC-272H; first compound 0.08 µM,0.341
same,relative viability,EPLC-272H; first compound 0.253 µM,0.409
same,relative viability,EPLC-272H; first compound 0.8 µM,0.363
same,relative viability,EPLC-272H; first compound 2.53 µM,0.343
same,relative viability,EPLC-272H; first compound 8 µM,0.366
